Drawing on ChEMBL document CHEMBL5390237, “Discovery of Selective Histone Deacetylase 1 and 2 Inhibitors: Screening of a Focused Library Constructed by Click Chemistry, Kinetic Binding Analysis, and Biological Evaluation” (J Med Chem, 2023), this text covers inhibition for 83 compounds.

Histone deacetylase 2, sequence (Q92769 whole entry): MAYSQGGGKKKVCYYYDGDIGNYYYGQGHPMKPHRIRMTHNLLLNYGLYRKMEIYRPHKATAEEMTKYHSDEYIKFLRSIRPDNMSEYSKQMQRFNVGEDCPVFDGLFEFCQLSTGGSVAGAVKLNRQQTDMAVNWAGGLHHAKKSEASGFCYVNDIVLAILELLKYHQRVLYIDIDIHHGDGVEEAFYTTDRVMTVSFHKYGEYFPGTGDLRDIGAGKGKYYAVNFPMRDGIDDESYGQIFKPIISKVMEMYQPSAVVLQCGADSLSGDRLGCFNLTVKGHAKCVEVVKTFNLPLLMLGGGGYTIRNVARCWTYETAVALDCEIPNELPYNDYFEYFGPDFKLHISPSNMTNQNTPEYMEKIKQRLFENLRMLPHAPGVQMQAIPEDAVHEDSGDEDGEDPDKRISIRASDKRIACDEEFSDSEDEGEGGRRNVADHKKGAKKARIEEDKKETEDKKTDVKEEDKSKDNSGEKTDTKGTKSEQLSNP

The assay has as its target Histone deacetylase 2 (Homo sapiens, UniProt Q92769). Kind of assay: Inhibition of full-length recombinant human C-terminal GST tagged HDAC2 expressed in Sf9 insect cells using aminoluciferin peptide substrate at 100 nM preincubated for 3 hrs followed by substrate addition and measured after 30 mins by HDAC-Glo I/II chemiluminescence assay. The following applies: time 3.5 hrs.
Broadly, the inhibition is how much of the control response was suppressed. In the case of `Nc1ccc(-c2cccnc2)cc1NC(=O)CCc1cn(C[S+]([O-])c2ccccc2)nn1` (stereo not drawn), the inhibition worked out at 0%.

On to `Nc1ccc(-c2cccnc2)cc1NC(=O)CCc1cn(CC23CC4CC(CC(C4)C2)C3)nn1`, for which the inhibition stood at 2%.

For `Nc1ccc(-c2cccs2)cc1NC(=O)c1cn(-c2ccc([N+](=O)[O-])cc2)nn1`, the inhibition stood at 0%.

On to `Nc1ccc(-c2ccsc2)cc1NC(=O)CCc1cn(Cc2cccc(-c3ccccc3)c2)nn1`, for which the inhibition was 0%.

Consider `Nc1ccc(-c2cccs2)cc1NC(=O)c1ccc(-c2cn(CCN3CCc4ccccc4C3)nn2)cc1`, for which the inhibition came out at 0%.

`Nc1ccc(-c2cccs2)cc1NC(=O)c1cccc(-c2cn(CC(=O)Nc3ccc(F)cc3)nn2)c1`: the inhibition worked out at 0%.

In the case of `Nc1ccc(-c2ccc(F)cc2)cc1NC(=O)c1cn(CCc2cccc(F)c2)nn1`, the inhibition stood at 0%.

In the case of `Nc1ccc(-c2ccsc2)cc1NC(=O)c1cn(CCN2CCc3ccccc3C2)nn1`, the inhibition came to 18%.

For `Nc1ccc(-c2cccs2)cc1NC(=O)CCc1cn(CCc2cccc(Cl)c2)nn1`, the inhibition amounted to 9%.

`Nc1ccc(-c2cccs2)cc1NC(=O)c1cn(Cc2ccc(OC(F)(F)F)cc2)nn1`: the inhibition amounted to 14%.

For `Nc1ccc(-c2ccc(F)cc2)cc1NC(=O)c1cn(CC(=O)Nc2ccc(F)cc2)nn1`, the inhibition is 32%.

Regarding `Nc1ccc(-c2ccc(F)cc2)cc1NC(=O)CCc1cn(CCCCCC(=O)O)nn1`, the inhibition came out at 0%.

For the compound `Nc1ccc(-c2ccsc2)cc1NC(=O)c1cn(CCc2ccc(Cl)cc2)nn1`, the inhibition was determined as 0%.

Regarding `Nc1ccc(-c2cccs2)cc1NC(=O)CCc1cn(CCCCC(=O)O)nn1`, the inhibition was determined as 2%.

Regarding `Nc1ccc(-c2cccs2)cc1NC(=O)c1cn(CCc2cccc(F)c2)nn1`, the inhibition stood at 0%.

Consider `Nc1ccc(-c2cccs2)cc1NC(=O)c1ccc(-c2cn(CCc3ccsc3)nn2)cc1`, for which the inhibition came out at 26%.

As for `Nc1ccc(-c2cccs2)cc1NC(=O)CCc1cn(CC23CC4CC(CC(C4)C2)C3)nn1`, the inhibition was 9%.

For the compound `Nc1ccc(-c2ccsc2)cc1NC(=O)c1cn(C[S+]([O-])c2ccccc2)nn1` (stereo not drawn), the inhibition was 10%.

As to `Nc1ccc(-c2ccsc2)cc1NC(=O)c1cn(/C=C/c2ccccc2)nn1`, the inhibition is 5%.

Take `Nc1ccc(-c2ccc(F)cc2)cc1NC(=O)CCc1cn(CCCCCCCC(=O)O)nn1`: the inhibition was 15%.

On to `Nc1ccc(-c2cccs2)cc1NC(=O)c1cccc(-c2cn(CCc3ccc(C(F)(F)F)cc3)nn2)c1`, for which the inhibition stood at 0%.

Consider `Nc1ccc(-c2cccs2)cc1NC(=O)c1ccc(-c2cn(CC34CC5CC(CC(C5)C3)C4)nn2)s1`, for which the inhibition is 0%.

Take `Nc1ccc(-c2cccs2)cc1NC(=O)c1ccc(-c2cn(-c3ccc([N+](=O)[O-])cc3)nn2)cc1`: the inhibition was 4%.

Consider `COc1ccccc1CCn1cc(-c2cccc(C(=O)Nc3cc(-c4cccs4)ccc3N)c2)nn1`, for which the inhibition turned out to be 3%.

Take `Nc1ccc(-c2cccnc2)cc1NC(=O)CCc1cn(CCc2ccccc2[N+](=O)[O-])nn1`: the inhibition worked out at 1%.

Take `Nc1ccc(-c2cccs2)cc1NC(=O)c1cccc(-c2cn(Cc3ccc(C(=O)O)cc3)nn2)c1`: the inhibition turned out to be 55%.

As to `Nc1ccc(-c2cccnc2)cc1NC(=O)CCc1cn(CCCCCc2ccccc2)nn1`, the inhibition worked out at 16%.

For `Nc1ccc(-c2ccsc2)cc1NC(=O)CCc1cn(/C=C/c2ccccc2)nn1`, the inhibition was 2%.

As to `Nc1ccc(-c2cccs2)cc1NC(=O)c1cccc(-c2cn(CCc3ccccc3)nn2)c1`, the inhibition came to 17%.

For `Nc1ccc(-c2cccnc2)cc1NC(=O)CCc1cn(CCc2cccc([N+](=O)[O-])c2)nn1`, the inhibition is 15%.

On to `Nc1ccc(-c2cccs2)cc1NC(=O)CCc1cn(Cc2ccc(OC(F)(F)F)cc2)nn1`, for which the inhibition stood at 17%.

As for `Nc1ccc(-c2ccccc2)cc1NC(=O)CCc1cn(CS(=O)(=O)c2ccccc2)nn1`, the inhibition was determined as 9%.

Turning to `Nc1ccc(-c2cccs2)cc1NC(=O)c1ccc(-c2cn(Cc3cccc(-c4ccccc4)c3)nn2)cc1`, the inhibition stood at 0%.

With `Cc1ccc(-n2cc(CCC(=O)Nc3cc(-c4cccnc4)ccc3N)nn2)cc1C`, the inhibition worked out at 0%.

As to `Nc1ccc(-c2ccc(F)cc2)cc1NC(=O)c1cn(Cc2ccc3ccccc3n2)nn1`, the inhibition came out at 27%.

With `Nc1ccc(-c2ccsc2)cc1NC(=O)CCc1cn(CCc2ccsc2)nn1`, the inhibition was 19%.

On to `Nc1ccc(-c2cccs2)cc1NC(=O)c1ccc(-c2cn(Cc3ccc(C(=O)O)cc3)nn2)cc1`, for which the inhibition came to 42%.

For `Nc1ccc(-c2cccs2)cc1NC(=O)c1ccc(-c2cn(CCc3cccc(Cl)c3)nn2)s1`, the inhibition is 6%.

On to `Nc1ccc(-c2cccnc2)cc1NC(=O)CCc1cn(CCc2ccsc2)nn1`, for which the inhibition amounted to 1%.

Consider `Nc1ccc(-c2cccs2)cc1NC(=O)c1ccc(-c2cn(CCc3ccc(Cl)cc3)nn2)s1`, for which the inhibition came out at 3%.

As for `Nc1ccc(-c2ccc(F)cc2)cc1NC(=O)c1cn(CCc2ccccc2)nn1`, the inhibition stood at 17%.

On to `Cc1cccc(CCn2cc(CCC(=O)Nc3cc(-c4cccnc4)ccc3N)nn2)c1`, for which the inhibition stood at 30%.

Consider `Nc1ccc(-c2cccs2)cc1NC(=O)c1ccc(-c2cn(/C=C/c3ccccc3)nn2)s1`, for which the inhibition came to 5%.

As for `Nc1ccc(-c2ccccc2)cc1NC(=O)c1cn(CCc2ccc(Cl)cc2)nn1`, the inhibition turned out to be 0%.

As for `Nc1ccc(-c2cccs2)cc1NC(=O)c1cn(Cc2cccc3ccccc23)nn1`, the inhibition stood at 13%.

Take `Nc1ccc(-c2cccs2)cc1NC(=O)CCc1cn(CCc2ccc(C(F)(F)F)cc2)nn1`: the inhibition amounted to 5%.

Regarding `Nc1ccc(-c2cccs2)cc1NC(=O)c1cccc(-c2cn(CC(=O)c3ccccc3)nn2)c1`, the inhibition was 7%.

For `Cc1cccc(C)c1NC(=O)Cn1cc(CCC(=O)Nc2cc(-c3cccnc3)ccc2N)nn1`, the inhibition was found to be 11%.

In the case of `Nc1ccc(-c2ccccc2)cc1NC(=O)CCc1cn(Cc2cccc(-c3ccccc3)c2)nn1`, the inhibition amounted to 0%.

Turning to `Nc1ccc(-c2cccs2)cc1NC(=O)c1ccc(-c2cn(CCc3ccccc3[N+](=O)[O-])nn2)cc1`, the inhibition was determined as 33%.

Regarding `Nc1ccc(-c2cccnc2)cc1NC(=O)CCc1cn(-c2ccc(Br)cc2)nn1`, the inhibition came out at 2%.

For the compound `Cc1ccc(-n2cc(CCC(=O)Nc3cc(-c4cccs4)ccc3N)nn2)cc1C`, the inhibition is 0%.

With `Nc1ccc(-n2cc(C(=O)Nc3cc(-c4ccsc4)ccc3N)nn2)cc1`, the inhibition stood at 31%.

Consider `Nc1ccc(-c2cccs2)cc1NC(=O)c1cn(CC23CC4CC(CC(C4)C2)C3)nn1`, for which the inhibition worked out at 0%.

Regarding `Nc1ccc(-c2ccccc2)cc1NC(=O)CCc1cn(CCN2CCOCC2)nn1`, the inhibition is 0%.

With `Nc1ccc(-n2cc(CCC(=O)Nc3cc(-c4cccs4)ccc3N)nn2)cc1`, the inhibition amounted to 25%.

With `Cc1ccccc1CCn1cc(CCC(=O)Nc2cc(-c3ccsc3)ccc2N)nn1`, the inhibition stood at 14%.

Take `Nc1ccc(-c2ccc(F)cc2)cc1NC(=O)c1cn(-c2ccc(O)cc2)nn1`: the inhibition was 15%.

For the compound `Nc1ccc(-c2ccsc2)cc1NC(=O)CCc1cn(Cc2ccc(OC(F)(F)F)cc2)nn1`, the inhibition was determined as 0%.

As for `Nc1ccc(-c2ccccc2)cc1NC(=O)CCc1cn(CCc2cccc(C(F)(F)F)c2)nn1`, the inhibition turned out to be 1%.

With `Nc1ccc(-c2cccs2)cc1NC(=O)c1ccc(-c2cn(CCc3ccc(C(=O)O)cc3)nn2)cc1`, the inhibition worked out at 46%.

Take `Nc1ccc(-c2cccs2)cc1NC(=O)c1cn(CCc2cccc(Cl)c2)nn1`: the inhibition turned out to be 2%.

With `Nc1ccc(-c2cccnc2)cc1NC(=O)CCc1cn(CCc2cccc(C(F)(F)F)c2)nn1`, the inhibition amounted to 13%.

Take `Nc1ccc(-c2ccsc2)cc1NC(=O)c1cn(CCc2cccc([N+](=O)[O-])c2)nn1`: the inhibition was determined as 1%.

As for `Nc1ccc(-c2cccs2)cc1NC(=O)CCc1cn(Cc2ccc(C(=O)O)cc2)nn1`, the inhibition was determined as 31%.

For the compound `Nc1ccc(-c2ccsc2)cc1NC(=O)c1cn(CCc2cccc3ccccc23)nn1`, the inhibition worked out at 0%.

Turning to `Nc1ccc(-c2cccs2)cc1NC(=O)c1cn(CCc2ccccc2[N+](=O)[O-])nn1`, the inhibition was found to be 19%.

Take `CCc1ccc(Cn2cc(CCC(=O)Nc3cc(-c4ccc(F)cc4)ccc3N)nn2)cc1`: the inhibition was determined as 2%.

Take `Nc1ccc(-c2ccsc2)cc1NC(=O)CCc1cn(Cc2ccc(-c3ccccc3)cc2)nn1`: the inhibition was 0%.

`Nc1ccc(-c2ccc(F)cc2)cc1NC(=O)c1cn(CC(=O)c2ccccc2)nn1`: the inhibition was found to be 6%.

On to `Cc1cccc(C)c1NC(=O)Cn1cc(C(=O)Nc2cc(-c3ccccc3)ccc2N)nn1`, for which the inhibition is 9%.

On to `Nc1ccc(-c2ccsc2)cc1NC(=O)c1cn(-c2ccc(O)cc2)nn1`, for which the inhibition stood at 2%.

Regarding `Nc1ccc(-c2ccccc2)cc1NC(=O)CCc1cn(Cc2ccc3ccccc3c2)nn1`, the inhibition is 11%.

Take `Nc1ccc(-c2ccsc2)cc1NC(=O)c1cn(CCCCCC(=O)O)nn1`: the inhibition turned out to be 0%.

With `Nc1ccc(-c2ccccc2)cc1NC(=O)CCc1cn(CCc2ccc(C(=O)O)cc2)nn1`, the inhibition was 33%.

With `Nc1ccc(-c2ccc(F)cc2)cc1NC(=O)CCc1cn(CCc2c[nH]c3ccccc23)nn1`, the inhibition amounted to 30%.

Consider `Nc1ccc(-c2cccs2)cc1NC(=O)c1ccc(-c2cn(CCc3ccc([N+](=O)[O-])cc3)nn2)cc1`, for which the inhibition is 42%.

On to `COc1ccccc1CCn1cc(CCC(=O)Nc2cc(-c3ccccc3)ccc2N)nn1`, for which the inhibition amounted to 10%.

On to `Nc1ccc(-c2ccccc2)cc1NC(=O)c1cn(CCc2cccc(C(F)(F)F)c2)nn1`, for which the inhibition was found to be 0%.

Consider `COc1ccc(Cn2cc(CCC(=O)Nc3cc(-c4ccccc4)ccc3N)nn2)cc1`, for which the inhibition turned out to be 6%.

As for `Nc1ccc(-c2cccs2)cc1NC(=O)c1ccc(-c2cn(Cc3cccc4ccccc34)nn2)s1`, the inhibition worked out at 13%.

Regarding `Cc1ccc(-n2cc(-c3cccc(C(=O)Nc4cc(-c5cccs5)ccc4N)c3)nn2)cc1C`, the inhibition turned out to be 5%.

On to `Nc1ccc(-c2ccccc2)cc1NC(=O)CCc1cn(Cc2ccc(OC(F)(F)F)cc2)nn1`, for which the inhibition is 0%.
